Measured values reported in paper PMC3171608 (Bioorganic & medicinal chemistry, 2011).

Assays:
[1] = tested on: other kinesin family members; details: cited from earlier work
HeLa cells = assay: Phenotypic assay in cultured HeLa cells; type: cell-based, human; details: 1 μM compound
[2] = molecular target: mammalian centromere-associated kinesin (MCAK) (Homo sapiens, UniProt Q99661); assay: Kinesin ATPase selectivity panel, MCAK; type: biochemical; details: panel of mitotic kinesins; data not shown
Sequence of mammalian centromere-associated kinesin (MCAK) (Q99661 258-588 limits assumed): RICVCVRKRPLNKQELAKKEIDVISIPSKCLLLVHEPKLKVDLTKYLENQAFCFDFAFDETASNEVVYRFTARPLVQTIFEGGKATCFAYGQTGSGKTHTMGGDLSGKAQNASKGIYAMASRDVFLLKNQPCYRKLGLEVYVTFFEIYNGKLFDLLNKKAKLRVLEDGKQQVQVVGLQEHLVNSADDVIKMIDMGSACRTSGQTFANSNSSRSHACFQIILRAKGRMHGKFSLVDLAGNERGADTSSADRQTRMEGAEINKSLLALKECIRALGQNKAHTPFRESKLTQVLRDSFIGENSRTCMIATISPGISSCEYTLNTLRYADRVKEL

[3] = molecular target: T1, centromeric protein E (CENP-E) (Homo sapiens, UniProt Q02224); assay: Kinesin ATPase selectivity panel, CENP-E; type: biochemical; details: panel of mitotic kinesins; data not shown
T1 sequence (Q02224 6-329 limits assumed): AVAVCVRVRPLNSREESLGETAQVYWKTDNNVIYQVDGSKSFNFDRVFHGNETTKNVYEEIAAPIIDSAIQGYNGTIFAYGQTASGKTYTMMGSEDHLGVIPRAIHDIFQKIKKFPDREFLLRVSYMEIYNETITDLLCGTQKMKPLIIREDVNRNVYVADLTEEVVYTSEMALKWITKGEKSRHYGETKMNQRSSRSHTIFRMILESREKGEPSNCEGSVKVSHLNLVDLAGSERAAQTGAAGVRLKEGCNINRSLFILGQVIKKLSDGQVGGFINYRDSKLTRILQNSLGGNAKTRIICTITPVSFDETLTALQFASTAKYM

chromokinesin = details: panel of mitotic kinesins; data not shown
NCI60 tumor panel = NCI60 tumor panel growth inhibition; details: for GI50: read-out: Average GI50 in leukemia and colon tumor cell lines
M14 = assay: NCI60 growth inhibition, M14; type: cell-based; details: melanoma M14, GI50

SMILES	Activity against other kinesin family members [1]	Interphase microtubule morphology (HeLa cells)	Inhibitory activity against MCAK [2]	Inhibitory activity against CENP-E [3]	Inhibitory activity against chromokinesin (chromokinesin)	GI50 (NCI60 tumor panel) [nM]	Fold increase in activity over monastrol (M14) [fold]	Average fold increase in potency over 1 (NCI60 tumor panel; NCI60 panel GI50) [fold]	Average fold increase in potency over Monastrol (NCI60 tumor panel; NCI60 panel GI50) [fold]
N[C@@H](CSC(c1ccccc1)(c1ccccc1)c1ccccc1)C(=O)O [Compound 1, S-trityl-L-cysteine]	no activity								
N[C@H](CO)CSC(c1ccccc1)(c1ccccc1)c1ccccc1 [Compound 4, (R)-2-amino-3-(tritylthio)propan-1-ol]		normal	no measurable inhibition detected	no measurable inhibition detected					
COc1ccc(C(SC[C@H](N)CO)(c2ccccc2)c2ccccc2)cc1 [Compound 5, (R)-2-amino-3-((4-methoxyphenyl)diphenylmethylthio)propan-1-ol]		normal	no measurable inhibition detected	no measurable inhibition detected	no measurable inhibition detected	≤ 230			
COc1ccc(C(SCCN)(c2ccccc2)c2ccccc2)cc1 [Compound 7]		normal				≤ 230	1200	~35	~143
